Measured values from patent publication US11530458B2, “Methods of using multi-ligand metal complexes to perform oxidative catalytic pretreatment of lignocellulosic biomass” (Board of Trustees of Michigan State University, priority 2014, dated 2022).

Assays:
[1] = Catalytic AOP pretreatment of hybrid poplar with multi-ligand catalysts, then enzymatic hydrolysis (glucose conversion); parameters: species or system Populus nigra var. charkoviensis×caudina cv. NE-19; details: for Glucose (Glucose Conversions): hybrid poplar, 270 mM NaOH, 10% H2O2, 24 hrs 30° C.
Description: Enzymatic hydrolysis was performed on the solid poplar slurry at 50° C. in the same rotary shaker used for the extraction step. In preparation for hydrolysis, 20 μL of 72% (w/w) H2SO4 and 500 μL of 1 M sodium citrate buffer (pH 5) (prepared from sodium citrate and citric acid) were added to the solid poplar slurry to adjust the pH to 5 (optimum pH for the enzymes being used herein). Thereafter, 40 μL of 10 mM tetracycline (Sigma-Aldrich) stock solution was added to the solid poplar slurry to inhibit microbial growth. This step was followed by addition of a Cellic CTec2 and HTec2 (Novozymes A/S, Bagsværd, DK) enzyme cocktail at a loading of 30 mg protein/g glucan in the biomass prior to extraction and catalytic pretreatment, unless otherwise noted. The enzymatic reaction (50° C., 210 rpm, 72 hrs) was carried out at 5% solids concentration by adjusting the volume of the poplar slurry to 10 mL via the addition of deionized water.
Following enzymatic hydrolysis, the resulting solid and liquid phases were separated by centrifugation in same manner as in Example 2, to produce separated hydrolyzed solid and liquid phases. The amount of glucose and xylose released into the aqueous phase was quantified by High Performance Liquid Chromatography (HPLC) (Agilent 1260 Series equipped with an Aminex® HPX-87H column operating at 65° C., a mobile phase of 0.05 M H2SO4, and a flow rate of 0.6 mL per minute, and detection by refractive index). The yield of glucose and xylose released was defined as the amount of solubilized monosaccharide divided by the total sugar content of the poplar biomass prior to incubation and catalytic pretreatment as determined by chemical composition analysis.
Hybrid poplar (0.5 g) (same source as Example 2) was catalytically pretreated using 1 mM of a stock solution of multi-ligand copper complex, namely copper (II) 2,2′ bipyridine ethylenediamine (Cu(bpy)en) containing 40 mM copper sulphate pentahydrate, 40 mM bipyridine and 40 mM ethylenediamine in deionized water, together with 270 mM NaOH and 10% H2O2 loading (w/w) on biomass in a total 5 mL volume made with deionized water. Other components of the pretreatment catalyst include tetraacetylethylenediamine (TAED), ethylenediaminetetraacetic acid (EDTA), manganese sulfate, and magnesium sulfate. The catalytic pretreatment was allowed to proceed for approximately 24 hrs at 30° C.
Thereafter, the resulting poplar slurry was pH adjusted to 5 and hydrolyzed according to the process described in Example 3. Following enzymatic hydrolysis, the solid and liquid phases were separated by centrifugation as described in Example 3.

[2] = Catalytic AOP pretreatment of alkali-extracted switchgrass, then enzymatic hydrolysis (glucose yield); parameters: species or system Panicum virgatum; details: 24 hr AOP pretreatment of AESG, catalyst concentration per table
Description: Screening of various metal ligand complexes (hereinafter “catalysts”) was performed via catalytic alkaline oxidative pretreatment (AOP) pretreatment of alkali-extracted switchgrass (AESG). To prepare AESG, 80 grams of untreated switchgrass (Panicum virgatum, cv. Cave-In-Rock, hammer milled to pass a 5-mm screen, and stored at a moisture content of approximately 5%) was soaked in an aqueous solution of 5 g/L NaOH at 80° C. for 2 hrs. The weight-to-volume (w/v) solids loading of switchgrass during alkaline extraction was 10% (e.g., 10 g of biomass in 100 mL NaOH solution). […] The washed solids was recovered as AESG and air-dried for over 7 days.
[Al(III)(3,5-^tBu2-salophen)Cl] [3,5-^tBu2-salophen=N,N′-bis(3,5-di-tert-butylsalicylidene)-1,2-phenylenediamine], [Zn(II)(BPPA)Cl]Cl [BPPA=N,N-bis(6-pivaloylamido-2-pyridylmethyl)-N-(2-pyridylmethyl)amine], and [NEt4][Fe(III)(bpb)Cl2]
To study the effect of catalytic AOP pretreatment on AESG, pretreatment was performed in a 100 g/L aqueous suspension of AESG in the presence of each catalyst. […] After 24 hrs of incubation at 30° C. without mixing, the pretreated switchgrass slurry was washed using deionized water to remove the alkaline phosphate buffer.
The enzymatic digestibility of AOP-pretreated switchgrass was estimated by the yield of glucose during the enzymatic hydrolysis of AOP pretreated AESG. The percentage yield was calculated on the basis of the glucan content in AESG prior to catalytic AOP pretreatment.
For enzymatic hydrolysis, 500 μL of 1 M Na-citrate buffer (pH 5) and 40 μL of 10 mM tetracycline (Sigma-Aldrich) were added to AOP-AESG that was not dried after catalytic AOP pretreatment. Accellerase 1500 (42 FPU/mL; Danisco-Genencor, Palo Alto, Calif.) was added at 50 mg protein per gram of glucan in AESG. The total volume of the mixture (solid and liquid) was adjusted with deionized water to reach a 5% (w/v) solids concentration, and the samples were incubated at 50° C. during hydrolysis.

[3] = catalyst concentration not given

| Compound | Glucose yield of enzymatic hydrolysis (% of theoretical maximum) ([2]; pH 3, 24 hrs hydrolysis) | Glucose yield of enzymatic hydrolysis (% of theoretical maximum) ([2]; pH 3, 72 hrs hydrolysis) | Glucose yield of enzymatic hydrolysis (% of theoretical maximum) ([2]; pH 11, 24 hrs hydrolysis) | Glucose yield of enzymatic hydrolysis (% of theoretical maximum) ([2]; pH 11, 72 hrs hydrolysis) | Glucose yield of enzymatic hydrolysis (% of theoretical maximum) ([2]; pH 10, 24 hrs hydrolysis) | other results |
| --- | --- | --- | --- | --- | --- | --- |
| NCCN.[Cu+2].c1ccc(-c2ccccn2)nc1 [Cu(bpy)en, copper (II) 2,2′ bipyridine ethylenediamine] | – | – | – | – | – | Glucose (Glucose Conversions) ([1]; catalyst 1 mM): 55.00; Glucose (Glucose Conversions) ([1]; catalyst 2 mM): 48.15; Glucose yields compared to other catalyst systems ([1]; in words): higher glucose yields compared to other catalyst systems tested |
| O=S(=O)([O-])[O-].[Cu+2] [CuSO4, copper sulfate] | – | – | – | – | – | Glucose (Glucose Conversions) [1, 3]: 40.62 |
| Fc1c(F)c(F)c(-c2c3nc(c(-c4c(F)c(F)c(F)c(F)c4F)c4ccc([nH]4)c(-c4c(F)c(F)c(F)c(F)c4F)c4nc(c(-c5c(F)c(F)c(F)c(F)c5F)c5ccc2[nH]5)C=C4)C=C3)c(F)c1F.[Fe+3] [Fe(III)-tetrakis-pentafluorophenyl)-porphyrin] | 29.18 ± 0.33 % of theoretical maximum | 35.38 ± 0.43 % of theoretical maximum | 35.37 ± 0.45 % of theoretical maximum | 40.25 ± 0.19 % of theoretical maximum | – | – |
| C1=Cc2nc1c(-c1ccccc1)c1ccc([nH]1)c(-c1ccccc1)c1nc(c(-c3ccccc3)c3ccc([nH]3)c2-c2ccccc2)C=C1.[Fe+3] [Fe(III)-tetraphenylporphyrin] | 31.55 ± 1.6 % of theoretical maximum | 42.13 ± 1.89 % of theoretical maximum | 36.98 ± 1.3 % of theoretical maximum | 42.14 ± 0.63 % of theoretical maximum | – | – |
| O=S(=O)([O-])[O-].[Mg+2] [MgSO4, magnesium sulfate] | – | – | – | – | – | Glucose (Glucose Conversions) [1, 3]: 25.17 |
| CC(C)(C)c1cc(C=Nc2ccccc2N=Cc2cc(C(C)(C)C)cc(C(C)(C)C)c2[O-])c([O-])c(C(C)(C)C)c1.[Al+3].[Cl-] [[Al(III)(3,5-^tBu2-salophen)Cl]] | – | – | 29.80 ± 0.25 % of theoretical maximum | – | 28.90 ± 0.17 % of theoretical maximum | Glucose yield of enzymatic hydrolysis (% of theoretical maximum) ([2]; pH 13, 24 hrs hydrolysis): 34.19 ± 0.41 % of theoretical maximum |
| CC[N+](CC)(CC)CC.O=C([N-]c1ccccc1[N-]C(=O)c1ccccn1)c1ccccn1.[Cl-].[Cl-].[Fe+3] [[NEt4][Fe(III)(bpb)Cl2]] | – | – | 27.44 ± 1.54 % of theoretical maximum | 31.54 ± 0.23 % of theoretical maximum | 25.54 ± 0.21 % of theoretical maximum | Glucose yield of enzymatic hydrolysis (% of theoretical maximum) ([2]; pH 9, 24 hrs hydrolysis): 27.07 ± 0.6 % of theoretical maximum; Glucose yield of enzymatic hydrolysis (% of theoretical maximum) ([2]; pH 9, 72 hrs hydrolysis): 34.27 ± 0.21 % of theoretical maximum; Glucose yield of enzymatic hydrolysis (% of theoretical maximum) ([2]; pH 10, 72 hrs hydrolysis): 31.97 ± 0.13 % of theoretical maximum |
| CC(C)(C)C(=O)Nc1cccc(CN(Cc2ccccn2)Cc2cccc(NC(=O)C(C)(C)C)n2)n1.[Cl-].[Cl-].[Zn+2] [[Zn^II(BPPA)Cl]Cl, [Zn(II)(BPPA)Cl]Cl] | – | – | 27.33 ± 0.62 % of theoretical maximum | – | 26.43 ± 0.31 % of theoretical maximum | Glucose yield of enzymatic hydrolysis (% of theoretical maximum) ([2]; pH 13, 24 hrs hydrolysis): 33.36 ± 0.3 % of theoretical maximum |
| Fe(III)-phthalocyanine | 30.91 ± 0.24 % of theoretical maximum | 36.80 ± 2.84 % of theoretical maximum | 34.21 ± 0.23 % of theoretical maximum | 38.75 ± 1.52 % of theoretical maximum | – | – |
